Measurements as given in paper PMC12163635, “Synthetic Retinoids for the Modulation of Genomic and Nongenomic Processes in Neurodegenerative Diseases” (ACS Omega, 2025).

Columns and labels:
[1] = tested on: SH-SY5Y cells; experiment: Neurite outgrowth; type: cell-based, human; conditions: 5 days; for fold induction at 0.01 µM: Homo sapiens, SH-SY5Y, 120 h, 10 nM compound, in comparison to nontreated cells, read-out: fold increase in neurite outgrowth; for induction of neurite outgrowth compared with ATRA: 10 nM
Method: Following the characterization of retinoids for their genomic and nongenomic activities, the ability of retinoids to differentiate and induce neurite outgrowth in the neuroblastoma cell line, SH-SY5Y cells, was examined (Figure ). Neurite outgrowth can be induced in this cell line by ATRA at 10 μM.
(§1) SH-SY5Y cell line as used in ERK phosphorylation and neurite outgrowth assays described below. The cells were grown in DMEM containing 10% FCS at 37 °C with 5% CO2. The medium was changed three times a week and the cells were passaged at 70% confluence using 0.05% trypsin-EDTA.
SH-SY5Y cells were plated at 10,000 cells/well in 12-well plates containing 16 mm acid-treated/poly L-lysine-coated glass coverslips. After 24 h, retinoids were added to the medium and tested at two different concentrations, 10 μM and 10 nM, with a final DMSO concentration of 0.01 or 0.0001%, respectively. The plates were incubated for 5 days at 5% CO2/37 °C. All retinoid concentrations were tested in triplicate. Cells were fixed using 4% paraformaldehyde and stained for β-III tubulin (1:1000; Sigma). For each neurite outgrowth experiment, 3 coverslips (in 3 wells) were used. ImageJ software with the NeuronJ plugin was used to quantify neurite outgrowth on stained cells in each of the 10 randomly selected images of each coverslip taken using a Nikon Eclipse E400 fluorescence microscope. The average neurite length was calculated for each image by dividing total neurite length by the total number of neurites per image.
(§2) All data are presented as mean ± SEM of three independent experiments with biological triplicates. Statistical analyses were performed in Microsoft Office Excel 2019 or GraphPad Prism 7.0c version (Prism, GraphPad Software, San Diego, CA). Neurite outgrowth data were analyzed by one-way ANOVA with Newman-Keuls multiple comparison test as appropriate; P value <0.05 was considered statistically significant. *P < 0.05, **P < 0.01. Data for X-Gal and ERK1/2 phosphorylation were analyzed using sigmoidal dose–response analysis of log (agonist) versus response curve (stimulation).

[2] = tested on: ERK1/2 phosphorylation in SH-SY5Y cells; experiment: ERK1/2 phosphorylation (nongenomic response), AlphaScreen SureFire; type: cell-based, human; conditions: for EC50: Homo sapiens, read-out: nongenomic response EC50 (±95% CI); for EC50 / nongenomic response Emax (±95% CI) / induction of ERK1/2 phosphorylation (nongenomic activity): SH-SY5Y cells, 1 h; for nongenomic E max compared with ATRA: nonoverlapping 95% CI
Method: After screening the retinoids for genomic responses, they were tested for their nongenomic ability to rapidly phosphorylate ERK1/2 in the SH-SY5Y cell line. ATRA is known as a potent activator of ERK1/2 − and was used as the standard for comparison. […] The efficacies of the remaining seven retinoids were similar to ATRA.
as §1
To quantify ERK1/2 phosphorylation, SH-SY5Y cells (100,000 cells/well) were plated onto 96-well plates and serum-starved for 24 h in DMEM. Cells were assayed in serum-free DMEM and stimulated for 60 min at 37 °C in a humidified atmosphere. Retinoids were tested at concentrations ranging from 10 to 4 to 10–11 M and at a final concentration of 0.1% DMSO. At the end of the assay, the medium was removed, and cells were lysed with lysis buffer supplied in the AlphaScreen SureFire ERK1/2 kit (PerkinElmer). The assay was performed in 384-well white Proxiplates according to the manufacturer’s instructions and using the beads supplied in the protein A general IgG detection kit (PerkinElmer). Briefly, 4 μL samples were incubated with 7 μL of the freshly prepared mixture containing donor and acceptor beads. Plates were incubated at room temperature and read with the Envision system (PerkinElmer Life Sciences) using AlphaScreen settings.
as §2

[3] = tested on: Sil-15 cells containing a RARE driving a lacZ reporter; experiment: X-Gal-based RA reporter assay (genomic response); type: cell-based; set-up: genomic response Emax (±95% CI): unit not given here; conditions: for genomic response Emax (±95% CI) / EC50: Sil-15 reporter cells; for genomic response Emax (±95% CI): absorbance at 650 nm; for genomic E max compared with ATRA / genomic EC50 compared with ATRA: nonoverlapping 95% CI; for EC50: read-out: genomic response EC50 (±95% CI), overnight, 10^–6 to 10^–14 M
Text: Following chemical design and synthesis, the synthetic retinoid library was screened for genomic and nongenomic biological activities and compared to the response of the endogenous retinoid, ATRA. In these assays, the EC50 value represented the concentration of retinoid that gave half-maximal response (potency), while the E max value represented the maximum response achievable from the retinoid (efficacy).
The transcriptional genomic activity of the retinoids was quantified using Sil-15 cells containing a RARE driving a lacZ reporter. […] Twenty-two of the synthetic retinoids were effective in inducing genomic activity. […] In addition, the retinoids varied in their efficacies.
The Sil-15 cell line was used in the X-gal RA reporter assay described below. The cells were grown in Dulbecco’s modified Eagle’s medium (DMEM) containing 10% fetal bovine serum (FCS) (Invitrogen/Gibco), 0.6% penicillin-streptomycin (Gibco) and 0.8 mg/mL G418 sulfate (Sigma) for selection. They were maintained in a humidified atmosphere containing 5% CO2 at 37 °C. The medium was changed three times a week and the cells were passaged at 70% confluence using 0.05% trypsin-EDTA.
Sil-15 cells are F9 teratocarcinoma cells stably transfected with a plasmid containing the LacZ gene under the control of a DR5-type RA response element (RARE). The reporter cell line was used to detect the transcriptional genomic activity of ATRA and other retinoids by colorimetrically quantifying the insoluble blue product generated by β-galactosidase from X-gal during the assay. The assay was performed by plating 100,000 cells per well in the 0.1% gelatin-coated 96-well plates and leaving them to attach overnight. The ATRA/retinoids dilutions ranging from 10^–6 to 10^–14 M were incubated on the reporter cells overnight at 37 °C, in 5% CO2. A standard curve of ATRA was included in each experiment to ensure the reproducibility of the results between assays performed on different days. All the assays for ATRA as well as the retinoids were quantified in triplicate. Serial dilutions of retinoids were prepared from a stock solution under red/orange light. The stock solutions prepared in DMSO for each retinoid varied depending on the solubility of each compound. Each stock was stored at −20 °C and protected from light. The next day, Sil-15 cells were washed with PBS, fixed with 1% glutaraldehyde and 1 mM MgCl2 solution for 15 min, and developed in X-gal developing solution (0.2% X-Gal, 1 mM MgCl2, 3.3 mM potassium ferricyanide and 3.3 mM potassium ferrocyanide in PBS). The plates were read on an E max microplate reader (Molecular Devices) at 650 nm.
as §2

| Structure (SMILES) | EC50 [2] [nM] | EC50 [3] [nM] | genomic EC50 compared with ATRA [3] | fold induction at 0.01 µM [1] | nongenomic response Emax (±95% CI) [2] | nongenomic E max compared with ATRA [2] | genomic response Emax (±95% CI) [3] | genomic E max compared with ATRA [3] | induction of ERK1/2 phosphorylation (nongenomic activity) [2] | induction of neurite outgrowth compared with ATRA [1] |
| --- | --- | --- | --- | --- | --- | --- | --- | --- | --- | --- |
| CC1(C)CCC(C)(C)c2cc(C#Cc3cc(F)c(C(=O)O)c(F)c3)ccc21 [Compound 15, 2,6-Difluoro-4-[2-(5,5,8,8-tetramethyl-5,6,7,8-tetrahydronaphthalen-2-yl)ethynyl]benzoic Acid] | 125 | – | – | 1.7 | 76.2 (±5.47) | E max values significantly higher than ATRA | 185 (±4.9) | significantly higher E max than ATRA | showed activity toward the nongenomic pathway | – |
| CC1(C)CCC(C)(C)c2cc(C#Cc3ccc(C(=O)O)cc3Cl)ccc21 [Compound 16, 3-Chloro-4-[2-(5,5,8,8-tetramethyl-5,6,7,8-tetrahydronaphthalen-2-yl)ethynyl]benzoic Acid] | 90.8 | 13.6 | significantly higher EC50 values than ATRA | 1.6 | 36.9 (±2.77) | E max values significantly lower than ATRA | 97.2 (±7.9) | significantly lower E max than ATRA | – | – |
| Cc1cc2c(cc1C#Cc1ccc(C(=O)O)cc1F)C(C)(C)CCC2(C)C [Compound 18, 3-Fluoro-4-[2-(3,5,5,8,8-pentamethyl-5,6,7,8-tetrahydronaphthalen-2-yl)ethynyl]benzoic Acid] | 13.1 | 1.38 | – | – | 40.1 (±1.86) | E max values significantly lower than ATRA | 140 (±12.1) | significantly lower E max than ATRA | – | induced neurite outgrowth but not significantly compared to ATRA |
| Cc1cc2c(cc1C#Cc1cc(F)c(C(=O)O)c(F)c1)C(C)(C)CCC2(C)C [Compound 19, 2,6-Difluoro-4-[2-(3,5,5,8,8-pentamethyl-5,6,7,8-tetrahydronaphthalen-2-yl)ethynyl]benzoic Acid] | 144 | 0.27 | significantly lower EC50 than ATRA | 1.6 | 77.6 (±2.92) | E max values significantly higher than ATRA | – | – | – | significantly induced neurite outgrowth compared to ATRA |
| COc1cc2c(cc1C#Cc1cc(F)c(C(=O)O)c(F)c1)C(C)(C)CCC2(C)C [Compound 22, 2,6-Difluoro-4-[2-(3-methoxy-5,5,8,8-tetramethyl-5,6,7,8-tetrahydronaphthalen-2-yl)ethynyl]benzoic Acid] | 3.37 | 0.146 | – | – | 71.2 (±3.9) | – | 155 (±10.6) | significantly lower E max than ATRA | – | induced neurite outgrowth but not significantly compared to ATRA |

The remaining compounds from weak to strong by EC50 [2], led by results:

| EC50 [2] [nM] | EC50 [3] [nM] | genomic EC50 compared with ATRA [3] | Structure (SMILES) | fold induction at 0.01 µM [1] | nongenomic response Emax (±95% CI) [2] | nongenomic E max compared with ATRA [2] | genomic response Emax (±95% CI) [3] | genomic E max compared with ATRA [3] | induction of ERK1/2 phosphorylation (nongenomic activity) [2] | induction of neurite outgrowth compared with ATRA [1] |
| --- | --- | --- | --- | --- | --- | --- | --- | --- | --- | --- |
| 27.4 | 0.0581 | – | CC1(C)CCC(C)(C)c2cc(C#Cc3ccc(C(=O)O)cc3F)ccc21 [Compound 14, 3-Fluoro-4-[2-(5,5,8,8-tetramethyl-5,6,7,8-tetrahydronaphthalen-2-yl)ethynyl]benzoic Acid] | 2.1 | 50.7 (±2.51) | – | 149 (±14.9) | significantly lower E max than ATRA | – | – |
| 23.9 | – | – | CC1(C)CCC(C)(C)c2cc(C#Cc3ccc(C(=O)O)cn3)ccc21 [Compound 23, 6-[2-(5,5,8,8-Tetramethyl-5,6,7,8-tetrahydronaphthalen-2-yl)ethynyl]pyridine-3-carboxylic Acid] | 1.9 | 85.7 (±9.23) | – | 210 (±8.45) | significantly higher E max than ATRA | showed activity toward the nongenomic pathway | significantly induced neurite outgrowth compared to ATRA |
| 13.6 | 0.146 | – | CC1(C)CCC(C)(C)c2cc(C#Cc3ccc(C(=O)O)nc3)ccc21 [Compound 24, 5-[2-(5,5,8,8-Tetramethyl-5,6,7,8-tetrahydronaphthalen-2-yl)ethynyl]pyridine-2-carboxylic Acid] | 2.2 | 59.7 (±3.34) | – | 207 (±19.5) | significantly higher E max than ATRA | showed activity toward the nongenomic pathway | significantly induced neurite outgrowth compared to ATRA |
| 5.73 | 0.134 | significantly lower EC50 than ATRA | Cc1cc2c(cc1C#Cc1ccc(C(=O)O)c(F)c1)C(C)(C)CCC2(C)C [Compound 17, 2-Fluoro-4-[2-(3,5,5,8,8-pentamethyl-5,6,7,8-tetrahydronaphthalen-2-yl)ethynyl]benzoic Acid] | – | 44.1 (±2.69) | – | 170 (±9.35) | – | – | induced neurite outgrowth but not significantly compared to ATRA |
| 2.44 | – | – | CC1(C)CCC(C)(C)c2cc(C#Cc3ccc(C(=O)O)c(F)c3)ccc21 [Compound 13, 2-Fluoro-4-[2-(5,5,8,8-tetramethyl-5,6,7,8-tetrahydronaphthalen-2-yl)ethynyl]benzoic Acid] | 1.9 | 43.4 (±1.81) | E max values significantly lower than ATRA | 190 (±8.2) | significantly higher E max than ATRA | – | – |
